ChEMBL document CHEMBL3102722, “Diarylacylhydrazones: Clostridium-selective antibacterials with activity against stationary-phase cells” (Bioorg Med Chem Lett, 2014)
Converted amounts (≈) assume the structure as drawn. The source made the active and inactive calls. The rule behind the calls is not given here.

Legend:
Clostridioides difficile [1] = experiment: Antibacterial activity against Clostridium difficile CD196 assessed as growth inhibition after 20 to 24 hrs; type: functional
Bifidobacterium longum = experiment: Antibacterial activity against Bifidobacterium longum ATCC BAA-999 assessed as growth inhibition after 20 to 24 hrs; type: functional
Lacticaseibacillus casei = experiment: Antibacterial activity against Lactobacillus casei ATCC 334 assessed as growth inhibition after 20 to 24 hrs; type: functional
[2] = system: Bacteroides thetaiotaomicron; experiment: Antibacterial activity against Bacteroides thetaiotaomicron ATCC 29148 assessed as growth inhibition after 20 to 24 hrs; type: functional
[3] = system: Limosilactobacillus reuteri; experiment: Antibacterial activity against Lactobacillus reuteri ATCC 23272 assessed as growth inhibition after 20 to 24 hrs; type: functional
Escherichia coli = experiment: Antibacterial activity against Escherichia coli ATCC 700927 assessed as growth inhibition after 20 to 24 hrs; type: functional
Bacteroides fragilis = experiment: Antibacterial activity against Bacteroides fragilis ATCC 25285 assessed as growth inhibition after 20 to 24 hrs; type: functional; conditions: NCTC 9343
Streptococcus mutans = experiment: Antibacterial activity against Streptococcus mutans ATCC 700610 assessed as growth inhibition after 20 to 24 hrs; type: functional
Enterococcus faecalis = experiment: Antibacterial activity against Enterococcus faecalis ATCC 47077 assessed as growth inhibition after 20 to 24 hrs; type: functional
Staphylococcus aureus = experiment: Antibacterial activity against Staphylococcus aureus 8325-4 assessed as growth inhibition after 20 to 24 hrs; type: functional
Clostridium perfringens = experiment: Antibacterial activity against Clostridium perfringens ATCC 13124 assessed as growth inhibition after 20 to 24 hrs; type: functional
Clostridioides difficile [4] = experiment: Antibacterial activity against stationary phase of Clostridium difficile CD196 assessed as cell killing at 1 to 20 X MIC after 3 to 6 hrs; type: functional
FaDu = experiment: Cytotoxicity against human FADU cells assessed as concentration required to decrease cell viability incubated for 24 hrs followed by compound washout measured after 18 hrs by resazurin dye-based assay
[5] = Cytotoxicity against human HepG2 cells assessed as concentration required to decrease cell viability incubated for 24 hrs followed by compound washout measured after 18 hrs by resazurin dye-based assay; conditions: read-out: Activity

Work on `NC(=O)N/N=C/c1c(O)ccc2ccccc12` yielded an MIC (Clostridioides difficile [1]) greater than 50 µg/mL.
Molecule `O=C(N/N=C/c1c(O)ccc2ccccc12)c1ccc(Cl)cc1` has an MIC (Bifidobacterium longum) greater than 50 µg/mL, an MIC (Lacticaseibacillus casei) greater than 50 µg/mL and an MIC (Clostridioides difficile [1]) of 6.25 µg/mL (≈ 19.2 µM). For the same molecule, the MIC [2] was 12.5 µg/mL (≈ 38.5 µM), the MIC [3] was greater than 50 µg/mL and the MIC (Escherichia coli) was greater than 50 µg/mL. The MIC (Bacteroides fragilis) was 12.5 µg/mL (≈ 38.5 µM), the MIC (Streptococcus mutans) was greater than 50 µg/mL and the MIC (Enterococcus faecalis) was greater than 50 µg/mL. It also gave an MIC (Staphylococcus aureus) greater than 50 µg/mL and an MIC (Clostridium perfringens) of no more than 0.78 µg/mL.
In the case of `Cc1cc(C(=O)N/N=C/c2ccc([N+](=O)[O-])o2)[nH]n1`, the MIC (Bifidobacterium longum) is reported as no more than 0.78 µg/mL, the MIC (Lacticaseibacillus casei) is reported as 6.25 µg/mL (≈ 23.7 µM) and the MIC (Clostridioides difficile [1]) is reported as 0.78 µg/mL (≈ 2.96 µM). For the same molecule, the MIC [2] was no more than 3.13 µg/mL, the MIC [3] was 12.5 µg/mL (≈ 47.5 µM) and the MIC (Escherichia coli) was 12.5 µg/mL (≈ 47.5 µM). For the same molecule, the MIC (Bacteroides fragilis) was no more than 3.13 µg/mL, the MIC (Streptococcus mutans) was 1.56 µg/mL (≈ 5.93 µM) and the MIC (Enterococcus faecalis) was 12.5 µg/mL (≈ 47.5 µM). For the same molecule, the MIC (Staphylococcus aureus) was 1.56 µg/mL (≈ 5.93 µM) and the MIC (Clostridium perfringens) was no more than 12.5 µg/mL.
Molecule `O=C(N/N=C/c1c(O)ccc2ccccc12)c1cc2ccccc2cc1O` has an MIC (Clostridioides difficile [1]) of 12.5 µg/mL (≈ 35.1 µM).
With `O=C(N/N=C/c1c(O)ccc2ccccc12)c1cc([N+](=O)[O-])cc([N+](=O)[O-])c1` the MIC (Clostridioides difficile [1]) was greater than 50 µg/mL.
In the case of `Cc1cc(C(=O)N/N=C/c2cccc3ccccc23)[nH]n1`, the MIC (Bifidobacterium longum) is reported as greater than 50 µg/mL, the MIC (Lacticaseibacillus casei) is reported as greater than 50 µg/mL and the MIC (Clostridioides difficile [1]) is reported as greater than 50 µg/mL. The MIC [2] was greater than 50 µg/mL, the MIC [3] was greater than 50 µg/mL and the MIC (Escherichia coli) was greater than 50 µg/mL. It also gave an MIC (Bacteroides fragilis) greater than 50 µg/mL, an MIC (Streptococcus mutans) greater than 50 µg/mL and an MIC (Enterococcus faecalis) greater than 50 µg/mL. The MIC (Staphylococcus aureus) was greater than 50 µg/mL and the MIC (Clostridium perfringens) was greater than 50 µg/mL.
For `O/N=C/c1c(O)ccc2ccccc12`, the MIC (Clostridioides difficile [1]) was greater than 50 µg/mL.
In the case of `N#CC(C#N)=NNc1cccc(Cl)c1` [CARBONYL CYANIDE M-CHLOROPHENYLHYDRAZONE], the Activity (Clostridioides difficile [4]) is reported as “Active”, the MIC (Bifidobacterium longum) is reported as 3.25 µg/mL (≈ 15.9 µM) and the MIC (Lacticaseibacillus casei) is reported as greater than 50 µg/mL. For the same molecule, the Activity (FaDu) was 50 µg/mL, the MIC (Clostridioides difficile [1]) was 1.56 µg/mL (≈ 7.62 µM) and the MIC [2] was greater than 50 µg/mL. The MIC [3] was greater than 50 µg/mL, the MIC (Escherichia coli) was greater than 50 µg/mL and the MIC (Bacteroides fragilis) was greater than 50 µg/mL. It also gave an MIC (Streptococcus mutans) greater than 50 µg/mL, an MIC (Enterococcus faecalis) greater than 50 µg/mL and an MCC at 24 h [5] of 50 µg/mL. It also gave an MIC (Staphylococcus aureus) greater than 50 µg/mL and an MIC (Clostridium perfringens) greater than 50 µg/mL.
With `O=[N+]([O-])c1ccc(O)c([N+](=O)[O-])c1` [2,4-DINITROPHENOL] the MIC (Bifidobacterium longum) was 25 µg/mL (≈ 136 µM), the MIC (Lacticaseibacillus casei) was greater than 50 µg/mL and the MIC (Clostridioides difficile [1]) was 50 µg/mL (≈ 272 µM). For the same molecule, the MIC [2] was 25 µg/mL (≈ 136 µM), the MIC [3] was greater than 50 µg/mL and the MIC (Escherichia coli) was greater than 50 µg/mL. It also gave an MIC (Bacteroides fragilis) of 12.5 µg/mL (≈ 67.9 µM), an MIC (Streptococcus mutans) greater than 50 µg/mL and an MIC (Enterococcus faecalis) greater than 50 µg/mL. It also gave an MIC (Staphylococcus aureus) of 25 µg/mL (≈ 136 µM) and an MIC (Clostridium perfringens) greater than 50 µg/mL.
For `O=C(NNC(=O)c1ccc(-c2ccccc2)cc1)c1ccc(-c2ccccc2)cc1`, the MIC (Clostridioides difficile [1]) was greater than 50 µg/mL.
Work on `COc1cccc(/C=N/NC(=O)c2ccc(C)cc2)c1O` yielded an MIC (Bifidobacterium longum) greater than 50 µg/mL, an MIC (Lacticaseibacillus casei) greater than 50 µg/mL and an MIC (Clostridioides difficile [1]) of 12.5 µg/mL (≈ 44 µM). For the same molecule, the MIC [2] was greater than 50 µg/mL, the MIC [3] was greater than 50 µg/mL and the MIC (Escherichia coli) was greater than 50 µg/mL. It also gave an MIC (Bacteroides fragilis) greater than 50 µg/mL, an MIC (Streptococcus mutans) of 1.56 µg/mL (≈ 5.49 µM) and an MIC (Enterococcus faecalis) greater than 50 µg/mL. The MIC (Staphylococcus aureus) was greater than 50 µg/mL and the MIC (Clostridium perfringens) was 6.25 µg/mL (≈ 22 µM).
`COc1ccc2ccccc2c1/C=N/NC(=O)c1ccc(C)cc1` showed an MIC (Bifidobacterium longum) greater than 50 µg/mL, an MIC (Lacticaseibacillus casei) greater than 50 µg/mL and an MIC (Clostridioides difficile [1]) greater than 50 µg/mL. For the same molecule, the MIC [2] was greater than 50 µg/mL, the MIC [3] was greater than 50 µg/mL and the MIC (Escherichia coli) was greater than 50 µg/mL. It also gave an MIC (Bacteroides fragilis) greater than 50 µg/mL, an MIC (Streptococcus mutans) greater than 50 µg/mL and an MIC (Enterococcus faecalis) greater than 50 µg/mL. The MIC (Staphylococcus aureus) was greater than 50 µg/mL and the MIC (Clostridium perfringens) was greater than 50 µg/mL.
For `O=C(N/N=C/c1c(O)ccc2ccccc12)c1ccc([N+](=O)[O-])cc1`, the MIC (Clostridioides difficile [1]) was greater than 50 µg/mL.
Molecule `Cc1ccc(C(=O)N(C)/N=C/c2c(O)ccc3ccccc23)cc1` has an MIC (Bifidobacterium longum) greater than 50 µg/mL, an MIC (Lacticaseibacillus casei) greater than 50 µg/mL and an MIC (Clostridioides difficile [1]) greater than 50 µg/mL. It also gave an MIC [2] greater than 50 µg/mL, an MIC [3] greater than 50 µg/mL and an MIC (Escherichia coli) greater than 50 µg/mL. For the same molecule, the MIC (Bacteroides fragilis) was greater than 50 µg/mL, the MIC (Streptococcus mutans) was greater than 50 µg/mL and the MIC (Enterococcus faecalis) was greater than 50 µg/mL. The MIC (Staphylococcus aureus) was greater than 50 µg/mL and the MIC (Clostridium perfringens) was greater than 50 µg/mL.
Work on `Cc1ccc(C(=O)N/N=C/c2ccc(O)c3ccccc23)cc1` yielded an MIC (Bifidobacterium longum) greater than 50 µg/mL, an MIC (Lacticaseibacillus casei) greater than 50 µg/mL and an MIC (Clostridioides difficile [1]) greater than 50 µg/mL. For the same molecule, the MIC [2] was greater than 50 µg/mL, the MIC [3] was greater than 50 µg/mL and the MIC (Escherichia coli) was greater than 50 µg/mL. It also gave an MIC (Bacteroides fragilis) greater than 50 µg/mL, an MIC (Streptococcus mutans) greater than 50 µg/mL and an MIC (Enterococcus faecalis) greater than 50 µg/mL. It also gave an MIC (Staphylococcus aureus) greater than 50 µg/mL and an MIC (Clostridium perfringens) greater than 50 µg/mL.
Molecule `CC(=O)N/N=C/c1ccccc1` has an MIC (Clostridioides difficile [1]) greater than 50 µg/mL.
For `Cc1ccc(C(=O)N/N=C/c2cccc3ccccc23)cc1`, the MIC (Bifidobacterium longum) was greater than 50 µg/mL, the MIC (Lacticaseibacillus casei) was greater than 50 µg/mL and the MIC (Clostridioides difficile [1]) was greater than 50 µg/mL. It also gave an MIC [2] greater than 50 µg/mL, an MIC [3] greater than 50 µg/mL and an MIC (Escherichia coli) greater than 50 µg/mL. For the same molecule, the MIC (Bacteroides fragilis) was greater than 50 µg/mL, the MIC (Streptococcus mutans) was greater than 50 µg/mL and the MIC (Enterococcus faecalis) was greater than 50 µg/mL. It also gave an MIC (Staphylococcus aureus) greater than 50 µg/mL and an MIC (Clostridium perfringens) greater than 50 µg/mL.
In the case of `O=C(NCc1ccccc1)c1ccc(-c2ccccc2)cc1`, the MIC (Clostridioides difficile [1]) is reported as greater than 50 µg/mL.
